Reference: PMC2740427 (The Journal of Biological Chemistry, 2009)
Like-named read-outs stand apart in the source and are kept apart here.

Assays:
MCT1 [1] = target: T1, MCT1 (Rattus norvegicus, UniProt P53987); assay type: cell-based; settings: read-out: % inhibition (irreversible) at 0.2 mM
T1 sequence (P53987 1-494): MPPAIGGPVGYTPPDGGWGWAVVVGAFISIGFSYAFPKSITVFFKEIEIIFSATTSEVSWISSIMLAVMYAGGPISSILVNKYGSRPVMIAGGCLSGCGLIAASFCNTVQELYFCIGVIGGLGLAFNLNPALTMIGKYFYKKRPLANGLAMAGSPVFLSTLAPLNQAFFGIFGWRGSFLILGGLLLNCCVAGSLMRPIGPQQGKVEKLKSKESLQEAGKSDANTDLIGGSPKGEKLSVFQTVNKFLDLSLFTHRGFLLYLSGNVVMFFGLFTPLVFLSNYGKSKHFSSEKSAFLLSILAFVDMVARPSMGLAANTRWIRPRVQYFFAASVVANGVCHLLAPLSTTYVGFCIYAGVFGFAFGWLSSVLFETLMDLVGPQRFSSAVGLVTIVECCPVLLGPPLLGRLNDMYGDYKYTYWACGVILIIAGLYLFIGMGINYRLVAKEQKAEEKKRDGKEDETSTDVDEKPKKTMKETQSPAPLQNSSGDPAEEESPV

MCT1 [2] = target: T1, MCT1; experiment: inhibition of L-[…]lactate uptake in Xenopus oocytes, DIDS present in assay; assay type: cell-based; settings: read-out: % inhibition (reversible) at 0.2 mM

O=S(=O)(O)c1cc(N=C=S)ccc1/C=C/c1ccc(N=C=S)cc1S(=O)(=O)O [DIDS] gave an inhibition at 200 µM (MCT1 [1]) of ~60% and an inhibition at 200 µM (MCT1 [2]) of ~60%.
